According to patent US20250002492A1, “COMPOSITIONS OF FOLATE ABSORPTION INHIBITORS AND METHODS THEREOF” (THE TEXAS A&M UNIVERSITY SYSTEM, priority 2023, published 2025):

What was measured:
C. elegans strain N2 = assay: Lifespan assay in worms; format: in vivo
Text: The ability of pharmacological or other interventions to extend the lifespan of different organisms is often conserved. For the instant example, the disclosed compounds can be tested for their ability to extend the lifespan of the worm model system Caenorhabditis elegans (N2 strain) [see, e.g., PMID: 19488025]. The organisms can be first exposed to the compounds as adults, 2-3 days after the egg stage until their death, on solid media containing the compounds at the desired concentration. The temperature can be kept constant at 20° C. throughout the assays. The bacteria used as food for the worms (Escherichia coli strain OP-50) can be dead (e.g., killed by lethal doses of ultraviolet radiation) to ensure that any effects on lifespan are not indirect, mediated through bacterial metabolism.
The assays were performed at 20° C. using C. elegans strain N2 and a bacterial strain (OP50) commonly used as food for the worms. Briefly, the assays were performed on solid agar nematode growth media (NGM) plates prepared fresh before each experiment. The bacterial lawn was exposed twice to a UV dose of 120 mJ/cm^2 using a UVC-515 Ultraviolet Multilinker (Ultra-Lum, Inc.). Streaking these UV-exposed bacteria to fresh LB agar plates (1% w/v tryptone, 0.5% w/v yeast extract, 1% w/v sodium chloride) produced no visible colonies. Methotrexate, or the ATIC inhibitor, was first dissolved in DMSO and then added to the media used to prepare the plates after autoclaving (the media were kept in a 50° C. water bath until the plates were poured). Mock-treated control plates contained only DMSO. At the start of each experiment, a sufficient number of eggs were collected from plates without any drugs and then placed on plates containing the indicated doses of each compound tested. After hatching and progression to the adult stage, animals were transferred to new plates (marked as the start of the lifespan assay) containing the drug tested and fluorodeoxyuridine (FUDR; dissolved in water), added at 50 μM to block hatching of new animals. The plates were scored at least every other day until all the worms died. If an animal responded to gentle touch, it was scored as alive, otherwise a death was recorded, and the animal was removed from the plate. Worms were transferred to fresh plates as needed (e.g., if there was evidence of microbial contamination, dryness/cracks on the agar surface, consumption of the bacterial lawn, or hatching of new animals that escaped the FUDR block). The reported lifespans were compiled from several independent experiments done over several months (9-10 months for the methotrexate experiments and 4-5 months for the ATIC inhibitor), each scored by multiple individuals (4-5 persons per experiment). No experiments were excluded from the analysis.

Caco-2 cells = assay: Toxicity in Caco-2 cells; format: cell-based; details: tested at 2-400 μM

Structure (SMILES): CC(=O)N1CCC(C(=O)N2CCN3C(=O)c4cc(-c5ccccc5)ccc4NC(=O)C3C2)CC1 (stereo not shown) [MPOL_B_1, 2-(1-acetylpiperidine-4-carbonyl)-8-phenyl-1,3,4,12a-tetrahydrobenzo[e]pyrazino[1,2-a][1,4]diazepine-6,12(2H,11H)-dione]
- lifespan effect relative to the effect of methotrexate (C. elegans strain N2; same worm assay): 2-3 times
- extension of maximal lifespan (C. elegans strain N2; worms, 50 and 100 μM): ~30%
- extension of mean lifespan (C. elegans strain N2; worms, 50 and 100 μM): ~30%
- toxicity (Caco-2 cells): not toxic
